pIC50: −log10 of the molar value.
What was measured:
AR 1.0 cells [1] = assay: Potentiation index for doxorubicin (doxorubicin titration with fixed concentration of compound); assay type: cell-based, mouse; conditions: RMA at 1 μM; doxorubicin, four days
Protocol: The EMT6 mouse mammary carcinoma cell line and the MDR resistant sublime AR 1.0 were cultured in RPMI 1640 medium containing 10% foetal calf serum and 2 mM glutamine at 37° C. in 5% CO2. Cells were passaged between 1 in 200 and 1 in 2000 in the case of the parental cell line and between 1 in 20 and 1 in 200 in the case of the MDR resistant subline, after trypsinisation (0.25% trypsin, 0.2 gl^-1, EDTA).
Cells were cultured for four days with a titration of doxorubicin (0.01 nm-50 μM) in the presence of a fixed concentration of each compound. Proliferation was quantified as described by Skehan et. al, loc cit. The IC50 (concentration required to reduce proliferation to 50% of the untreated controls) for doxorubicin alone and with each compound were derived and used to calculate the potentiation index (PI): [formula]

AR 1.0 cells [2] = assay: Drug accumulation assay (tritiated daunorubicin); assay type: cell-based; conditions: Mus musculus, read-out: IC50 accumulation
Protocol: AR 1.0 cells were seeded into 96 well opaque culture plates (Canberra Packard). The assay medium contained a mixture of tritiated Daunorubicin (DNR), a cytotoxic agent, and unlabelled DNR (0.3 μCi/ml; 2 μM). Compounds of formula I were serially diluted in assay medium over a range of concentrations from 5 nM to 100 μM. The cells were incubated at 37° C. for 1 hr before washing and determination of cell associated radioactivity. Results were expressed as % maximum accumulation where 100% accumulation is that observed in the presence of the known RMA verapamil at 100 μM. Where possible an IC50 was determined.

AR 1.0 cells [3] = assay: Compound toxicity (proliferation, sulphorhodamine B); assay type: cell-based; conditions: Mus musculus, 96 h, read-out: Compound toxicity (IC50)
AR 1.0 cells [4] = assay: Potentiation of doxorubicin toxicity (fixed doxorubicin 0.86 μM, proliferation, sulphorhodamine B); assay type: cell-based, mouse
Source text: Compounds of formula (I) were examined for their ability to potentiate the toxicity of doxorubicin in AR 1.0 cells.

[5] = daunorubicin 2 μM, 1 hr at 37° C.
[6] = compound alone, AR 1.0 cells, four day incubation
[7] = with doxorubicin 0.86 μM, four day incubation, 5760 min, read-out: Toxicity with cytotoxic agent (IC50)

| SMILES | Potentiation index (AR 1.0 cells [1]) | pIC50 (AR 1.0 cells [2]; [5]) | pIC50 (AR 1.0 cells [3]; [6]) | pIC50 (AR 1.0 cells [4]; [7]) | pIC50 (AR 1.0 cells [2]; 1 h) | pIC50 (AR 1.0 cells [3]) | pIC50 (AR 1.0 cells [4]; ar 1.0 cells, 96 h) |
| --- | --- | --- | --- | --- | --- | --- | --- |
| Cn1c(=O)/c(=C/c2ccc(C(=O)N3CCN(c4ncccn4)CC3)cc2)[nH]c(=O)/c1=C/c1ccccc1 [Compound 9022, 1-(4-((3Z,6Z)-6-Benzylidene-1-methyl-2,5-dioxo-3-piperazinylidene)methylbenzoyl)-4-(2-pyrimidyl)piperazine] | 5 | 5.15 | 4.46 | 6.10 |  |  |  |
| COc1cc2c(cc1OC)CN(CCc1ccc(NC(=O)c3cccc(/C=c4\[nH]c(=O)/c(=C/c5ccccc5)n(C)c4=O)c3)cc1)CC2.Cl [Compound 9051, N-(4-(2-(6,7-Dimethoxy-1,2,3,4-tetrahydro-2-isoquinolyl)ethyl)phenyl)-3-((3Z,6Z)-6-benzylidene-1-methyl-2,5-dioxo-3-piperazinylidene)methylbenzamide, hydrochloride] | 2000 |  |  | 8.00 | 6.82 | 5.70 |  |
| COc1cc2c(cc1OC)CN(Cc1ccc(NC(=O)c3ccc(/C=c4\[nH]c(=O)/c(=C/c5ccccc5)n(C)c4=O)cc3)cc1)CC2.Cl [Compound 9064, N-(4-(6,7-Dimethoxy-1,2,3,4-tetrahydro-2-isoquinolyl)methylphenyl)-4-((3Z,6Z)-6-benzylidene-1-methyl-2,5-dioxo-3-piperazinylidene)methylbenzamide, hydrochloride] | 750 | 6.52 | 5.70 | 8.00 |  |  |  |
| COc1ccc(N2CCN(C(=O)c3ccc(/C=c4\[nH]c(=O)/c(=C/c5ccccc5)n(C)c4=O)cc3)CC2)cc1.Cl [Compound 9071, 1-(4-((3Z,6Z)-6-Benzylidene-1-methyl-2,5-dioxo-3-piperazinylidene)methylbenzoyl)-4-(4-methoxyphenyl)piperazine, hydrochloride] | 4 | 5.22 | 5.22 | 6.70 |  |  |  |
| Cn1c(=O)/c(=C/c2ccc(C(=O)Nc3ccc(CCN4CCC(O)(c5ccc(Cl)cc5)CC4)cc3)cc2)[nH]c(=O)/c1=C/c1ccccc1 [Compound 9079, N-(4-(2-(4-(4-Chlorophenyl) -4-hydroxypiperidino)ethyl)phenyl)-4-((3Z,6Z)-6-benzylidene-1-methyl-2,5-dioxo-3-piperazinylidene)methylbenzamide] | 3 | 4.10 | 5.70 |  |  |  | 5.77 |
| Cl.Cn1c(=O)/c(=C/c2ccc(C(=O)Nc3ccc(CN4CCN(c5ccccc5)CC4)cc3)cc2)[nH]c(=O)/c1=C/c1ccccc1 [Compound 9104, N-(4-(4-Phenyl-1-piperazinyl)methylphenyl)-4-((3Z,6Z)-6-benzylidene-1-methyl-2,5-dioxo-3-piperazinylidene)methylbenzamide, hydrochloride] | 17 | 5.30 | 4.40 |  |  |  |  |
| COc1cc2c(cc1OC)CN(CCNC(=O)c1cccc(/C=c3\[nH]c(=O)/c(=C/c4ccccc4)n(C)c3=O)c1)CC2 [Compound 9136, N-(2-(6,7-Dimethoxy-1,2,3,4-tetrahydro-2-isoquinolyl)ethyl)-3-((3Z,6Z)-6-benzylidene-1-methyl-2,5-dioxo-3-piperazinylidene)methylbenzamide] | 25 | 6.05 | 4.89 | 5.70 |  |  |  |
| COc1ccc(CCN(C)CCc2ccc(NC(=O)c3cccc(/C=c4\[nH]c(=O)/c(=C/c5ccccc5)n(C)c4=O)c3)cc2)cc1OC [Compound 9138] | 333 | 6.10 | 5.10 | 6.00 |  |  |  |
| CN(CCNC(=O)c1cccc(/C=c2\[nH]c(=O)/c(=C/c3ccccc3)n(C)c2=O)c1)CC(c1ccccc1)c1ccccc1 [Compound 9163, N-(2-(2,2-Diphenylethyl)methylaminoethyl)-3-((3Z,6Z)-6-benzylidene-1-methyl-2,5-dioxo-3-piperazinylidene)methylbenzamide] | 6.7 | 5.70 | 5.00 | 6.30 |  |  |  |
